The values below are quoted from earlier work in patent US20160107977A1, “METHODS OF SYNTHESIS OF INGENOL AND INTERMEDIATES THEREOF” (LEO LABORATORIES LIMITED, priority 2013, published 2016).

For data set [1], the system named is Epstein-Barr virus. The conditions noted are these: lymphoblastoid cells; Keller et al. 1982.
Data set [2] relates to breast cancer cell line MDA-MB-231. The conditions noted are these: p53-mediated pathway, Vigone et al. 2005.
The subject of data set [3] is breast cancer cell line T47D. The following applies: p53-mediated pathway, Vigone et al. 2005.

Turning to `CCCCCCCCCCCCCCCC(=O)O[C@H]1C(C)=C[C@]23C(=O)[C@@H](C=C(CO)[C@@H](O)[C@]12O)[C@H]1[C@@H](C[C@H]3C)C1(C)C`, the Epstein-Barr virus induction entry in data set [1] is “most potent Epstein-Barr virus inducer”.

As to `CC1=CC23C(=O)C(C=C(COC(=O)c4ccccc4)C(O)C2(O)C1O)C1C(CC3C)C1(C)C` (stereo not drawn) [ingenol-20-benzoate], the antitumour activity result in data set [2] was “antitumour activity characterized by inhibition of cell growth and apoptotic cell death”; in data set [3] it was “antitumour activity characterized by inhibition of cell growth and apoptotic cell death”.
